Assay results: patent publication US20170333421A1, “Population Pharmacokinetics of Liposomal Irinotecan” (IPSEN BIOPHARM LTD., priority 2016, published 2017)
Where a name gives a salt, the structure may show the parent alone. Read-outs that look alike come from different tables or passages of the source. Blank lines part the entries; values can stand above or below the molecule they belong to.

Key:
[1] = NAPOLI-1 observed 5-FU concentration; conditions: human, in vivo, intravenous; read-out: 5-FU estimated half-life after the end of infusion
Colorectal Cancer = conditions: cited from earlier work
PL45 = assay: CellTiter-Glo cell viability; format: cell-based; conditions: for IC50: PL45, 24 h exposure + 72 h recovery
Method: (§1) In vitro efficacy study was done using CellTiter-Glo® Luminescent Cell Viability Assay (Promega) with Corning Cat #3707 384well White Clear bottom plates. Cells were plated (1000 cells/well) in 384 well format and allowed to incubate @ 37 C for 24 hours. Monotherapy drugs were added at the 24 hr time point and then allowed to incubate @ 37 C for 24 hours. At the 48 hr time point the drugs in media were removed, washed with PBS, and fresh media was added. Cells were then allowed to incubate @ 37 C for 72 hours. At the 120 hr time point media was removed and CellTiter-Glo (CTG) reagent was added (1:1 ratio with PBS). Plate was read by luminometer (Envision Multilabel reader). More details of this assay can be found in Accelrys Notebook ELN as EXP-15-AC2111.
(§2) All cell lines had been adapted to and were maintained in RPMI with 10% fetal bovine serum and supplemented with penicillin/streptomycin (Invitrogen).
(§3) Data was analyzed using an in-house algorithm developed using Matlab (Mathworks, Natick MA). In summary, average CTG mean luminescent values were computed for 4 replicate wells. Outlier detection was performed by computing the coefficient of variation (CV>20%) and outliers were removed from the average. CTG values were normalized based on a control non-treated well. Drug concentration in microMolar (uM) was log transformed prior to fitting to a 4 parameter logistic curve.
(§4) Data quality control was performed to ensure that the concentration range is optimal according to these rules: (1) if the lowest concentration kills more than 70% of the cells the concentration range is deemed too potent (2) if the highest concentration kills less than 30% of the cells, the concentration range is deemed low or the cell line is too resistant. Additionally, goodness of the fit was evaluated using R^2 and R^2<0.9 is flagged as a bad fit. Statistical analysis was performed using JMP (SAS Institute Inc., NC).
(§5) Pancreatic cell lines were cultured to sub confluent state in 384 well plates prior to incubation with varying doses of SN-38 for 24 hours. Additions 72 hours of culture were performed prior to CTG assessment. Every well was run in 4 replicates, and the entire experiment was run in four different plates. The compared results from the four separate experiments show the reproducibility of the cytotoxic effects of SN-38.

CFPAC1 = assay: CellTiter-Glo cell viability; format: cell-based; conditions: for IC50: Homo sapiens, CFPAC-1
Method: as §1, §2, §3, §4, §5

L3.6pL = assay: CellTiter-Glo cell viability; format: cell-based; conditions: for IC50: Homo sapiens, 24 h exposure + 72 h recovery
Method: as §1, §2, §3, §4, §5

Panc6.03 = assay: CellTiter-Glo cell viability; format: cell-based; conditions: for IC50: Panc6.03, 24 h exposure + 72 h recovery
Method: as §1, §2, §3, §4, §5

Colo357 = assay: CellTiter-Glo cell viability; format: cell-based; conditions: for IC50: Homo sapiens, Colo357, 24 h exposure + 72 h recovery
Method: as §1, §2, §3, §4, §5

HPAFII = assay: CellTiter-Glo cell viability; format: cell-based; conditions: for IC50: Homo sapiens, HPAF-II, 24 h exposure + 72 h recovery
Method: as §1, §2, §3, §4, §5

Panc1 = assay: CellTiter-Glo cell viability; format: cell-based
Method: as §1, §2, §3, §4, §5

BxPC3 = assay: CellTiter-Glo cell viability; format: cell-based; conditions: for IC50: Homo sapiens, BXPC-3, BxPC3, 24 h exposure + 72 h recovery
Method: as §1, §2, §3, §4, §5

Aspc1 = assay: CellTiter-Glo cell viability; format: cell-based; conditions: for IC50: Homo sapiens, Aspc1, 24 h exposure + 72 h recovery
Method: as §1, §2, §3, §4, §5

Capan-2 = assay: CellTiter-Glo cell viability; format: cell-based
Method: as §1, §2, §3, §4, §5

L3.3 = assay: CellTiter-Glo cell viability; format: cell-based; conditions: for IC50: L3.3, 24 h exposure + 72 h recovery
Method: as §1, §2, §3, §4, §5

KP4 = assay: CellTiter-Glo cell viability; format: cell-based; conditions: for IC50: Homo sapiens, KP-4, KP4, 24 h exposure + 72 h recovery
Method: as §1, §2, §3, §4, §5

Hs766t = assay: CellTiter-Glo cell viability; format: cell-based; conditions: for IC50: 24 h exposure + 72 h recovery
Method: as §1, §2, §3, §4, §5

SU8686 = assay: CellTiter-Glo cell viability; format: cell-based; conditions: for IC50: Homo sapiens, SU.86.86, SU8686, 24 h exposure + 72 h recovery
Method: as §1, §2, §3, §4, §5

Miapaca2 = assay: CellTiter-Glo cell viability; format: cell-based; conditions: for IC50: Homo sapiens, MIA PaCa-2
Method: as §1, §2, §3, §4, §5

SW1990 = assay: CellTiter-Glo cell viability; format: cell-based; conditions: for IC50: Homo sapiens, SW1990, 24 h exposure + 72 h recovery
Method: as §1, §2, §3, §4, §5

pancreatic cell lines = assay: CellTiter-Glo cell viability, pancreatic cell panel; format: cell-based
Method: as §1, §2, §3, §4, §5

clinical = conditions: human, in vivo, 300 mg/m2
[2] = Kohne 2013, continuous infusion
[3] = n 2, read-out: IC50 Log(μM) mean (converted)
[4] = n 4, read-out: IC50 Log(μM) mean (converted)
[5] = n 3, read-out: IC50 Log(μM) mean (converted)

- half-life [1]: 8 to 14 min
SMILES: O=c1[nH]cc(F)c(=O)[nH]1 [5-FU, 5-fluorouracil]
- Median OS (m) (Colorectal Cancer; Kohne 2013, bolus 463-531 mg/m^2/week): nrd
- OS 3 y (Colorectal Cancer; Kohne 2013, bolus): 85%
- OS 5 y (Colorectal Cancer; Kohne 2013, bolus): 79%
- Median OS (m) (Colorectal Cancer; Kohne 2013, continuous infusion 800-3500 mg/m^2/week, N 797): nrd
- OS 3 y (Colorectal Cancer; [2]): 85%
- OS 5 y (Colorectal Cancer; [2]): 79%
- Overall Survival HR, bolus vs continuous infusion (ref) (Colorectal Cancer; Kohne 2013 PETACC-2, BL 370-425 mg/m^2/d for 5 d q4w, N 804): 0.96
- OS HR across different 5-FU dose intensities and dose administrations (Colorectal Cancer; meta-analysis, did not affect OS): 0.96-1.11

- IC50 (Panc6.03; [4]): 0.00115 µM
- IC50 (Panc6.03; read-out: IC50(nM) mean): 0.00115 µM
- IC50 (Colo357; [3]): 61.7 pM
- IC50 (Colo357; read-out: IC50(nM) mean): 61.7 pM
- IC50 (Panc1; Homo sapiens, PANC-1, Panc1, 24 h exposure + 72 h recovery, n 4, read-out: IC50 Log(μM) mean (converted)): 0.0138 µM
- IC50 (Panc1; Homo sapiens, PANC-1, Panc1, 24 h exposure + 72 h recovery, read-out: IC50(nM) mean): 0.0138 µM
- IC50 (Panc1; Panc1, 24 h exposure + 72 h recovery, read-out: IC50(nM) mean): 0.0138 µM
- IC50 (BxPC3; [3]): 17 pM
- IC50 (BxPC3; read-out: IC50(nM) mean): 17 pM
- IC50 (Aspc1; [5]): 0.00398 µM
- IC50 (Aspc1; read-out: IC50(nM) mean): 0.00398 µM
- IC50 (Miapaca2; MiaPaCa2, read-out: IC50 concentration): 4.2 pM
- IC50 (Miapaca2; Miapaca2, 24 h exposure + 72 h recovery, n 3, read-out: IC50 Log(μM) mean (converted)): 4.17 pM
- IC50 (Miapaca2; Miapaca2, 24 h exposure + 72 h recovery, read-out: IC50(nM) mean): 4.2 pM
- IC50 (SW1990; [4]): 87.1 pM
- IC50 (SW1990; read-out: IC50(nM) mean): 87.1 pM
SMILES: CCc1c2c(nc3ccc(O)cc13)-c1cc3c(c(=O)n1C2)COC(=O)[C@]3(O)CC [SN-38]
- Tumor Cell Kill (%) mean (PL45; PL45): 92.16%
- IC50 (PL45; [3]): 3.55 pM
- IC50 (PL45; read-out: IC50(nM) mean): 3.5 pM
- Tumor Cell Kill (%) mean (CFPAC1; CFPAC1): 84.74%
- IC50 (CFPAC1; CFPAC1, 24 h exposure + 72 h recovery, n 2, read-out: IC50 Log(μM) mean (converted)): 3.16 pM
- IC50 (CFPAC1; CFPAC1, 24 h exposure + 72 h recovery, read-out: IC50(nM) mean): 3.2 pM
- IC50 (CFPAC1; CFPAC1, read-out: IC50 concentration): 3.2 pM
- Tumor Cell Kill (%) mean (L3.6pL): 95.18%
- IC50 (L3.6pL; [3]): 2.82 pM
- IC50 (L3.6pL; read-out: IC50(nM) mean): 2.8 pM
- Tumor Cell Kill (%) mean (Panc6.03; Panc6.03): 87.68%
- Tumor Cell Kill (%) mean (Colo357; Colo357): 94.47%
- Tumor Cell Kill (%) mean (HPAFII): 93.24%
- IC50 (HPAFII; [5]): 0.00204 µM
- IC50 (HPAFII; read-out: IC50(nM) mean): 0.00204 µM
- Tumor Cell Kill (%) mean (Panc1; Panc1): 89.54%
- Tumor Cell Kill (%) mean (BxPC3; BxPC3): 77.37%
- Tumor Cell Kill (%) mean (Aspc1; Aspc1): 91.61%
- Tumor Cell Kill (%) mean (Capan-2; Capan-2): 94.61%
- IC50 (Capan-2; Capan-2, 24 h exposure + 72 h recovery, read-out: IC50(nM) mean): 20.4 nM
- IC50 (Capan-2; Homo sapiens, Capan-2, Capan-2, 24 h exposure + 72 h recovery, n 3, read-out: IC50 Log(μM) mean (converted)): 20.4 nM
- IC50 (Capan-2; Homo sapiens, Capan-2, Capan-2, 24 h exposure + 72 h recovery, read-out: IC50(nM) mean): 20.4 nM
- Tumor Cell Kill (%) mean (L3.3; L3.3): 93.01%
- IC50 (L3.3; [3]): 2.04 pM
- IC50 (L3.3; read-out: IC50(nM) mean): 2 pM
- IC50 (KP4; [3]): 7.94 pM
- IC50 (KP4; read-out: IC50(nM) mean): 7.9 pM
- Tumor Cell Kill (%) mean (KP4; KP4): 86.62%
- Tumor Cell Kill (%) mean (Hs766t): 86.41%
- IC50 (Hs766t; read-out: IC50(nM) mean): 63.1 nM
- IC50 (Hs766t; Hs766T, n 2, read-out: IC50 Log(μM) mean (converted)): 63.1 nM
- IC50 (Hs766t; Hs766T, read-out: IC50(nM) mean): 63.1 nM
- IC50 (SU8686; [3]): 0.000692 µM
- IC50 (SU8686; read-out: IC50(nM) mean): 0.000692 µM
- Tumor Cell Kill (%) mean (SU8686; SU8686): 95.82%
- Tumor Cell Kill (%) mean (Miapaca2; Miapaca2): 91.23%
- Tumor Cell Kill (%) mean (SW1990; SW1990): 91.92%
- Tumor cell kill rates averaged across all cell lines (pancreatic cell lines): 90%
- decrease in cell viability for most cell lines (pancreatic cell lines; 24 h SN-38, additional 72 h culture): around 90%
- IC50 (pancreatic cell lines; 24 hours exposure, recovery period of 72 h, read-out: IC50 range across all pancreatic cell lines): 1 to 100000 pM
- IC50 (pancreatic cell lines; basis of the uSN38 threshold, read-out: median IC50 in in-vitro pancreatic cell lines): 0.03 ng/mL

- AUC(0-inf) (clinical): 24700 ng·h/mL
- Cmax (clinical): 4100 ng/mL
SMILES: CCc1c2c(nc3ccc(OC(=O)N4CCC(N5CCCCC5)CC4)cc13)-c1cc3c(c(=O)n1C2)COC(=O)[C@]3(O)CC [irinotecan HCl, (S)-4,11-diethyl-3,4,12,14-tetrahydro-4-hydroxy-3,14-dioxo1H-pyrano[3′,4′:6,7] indolizino[1,2-b]quinolin-9-yl-[1,4′bipiperidine]-1′-carboxylate]
